Data as given in ChEMBL document CHEMBL3826894, “Structural modification of luteolin from Flos Chrysanthemi leads to increased tumor cell growth inhibitory activity” (Bioorg Med Chem Lett, 2016).

Columns and labels:
[1] = Cytotoxicity against human HL60 cells assessed as inhibition of cell growth at 100 uM after 72 hrs by MTT assay; assay type: functional; conditions: HL-60, 72 h, read-out: GI
[2] = Cytotoxicity against human HL60 cells assessed as reduction in cell viability after 72 hrs by MTT assay; assay type: functional, cell-based; conditions: HL-60, 72 h
[3] = target: T1, Apoptosis regulator Bcl-2 (Homo sapiens, UniProt P10415); assay: Inhibition of Bcl-2 (unknown origin) using FAM-Bid peptide as substrate at 50 uM by fluorescence polarization-based assay
[4] = target: T2, Bcl-2-like protein 1 (Homo sapiens, UniProt Q07817); assay: Inhibition of Bcl-XL (unknown origin) using FAM-Bid peptide as substrate at 50 uM by fluorescence polarization-based assay
[5] = system: HEK293; assay: Cytotoxicity against human HEK293 cells assessed as reduction in cell viability after 72 hrs by MTT assay; assay type: cell-based; conditions: HEK293, 72 h
[6] = target: T2, Bcl-2-like protein 1; assay: Inhibition of Bcl-XL (unknown origin) using FAM-Bid peptide as substrate by fluorescence polarization-based assay
[7] = target: T1, Apoptosis regulator Bcl-2; assay: Inhibition of Bcl-2 (unknown origin) using FAM-Bid peptide as substrate by fluorescence polarization-based assay

T1 sequence (P10415 whole entry): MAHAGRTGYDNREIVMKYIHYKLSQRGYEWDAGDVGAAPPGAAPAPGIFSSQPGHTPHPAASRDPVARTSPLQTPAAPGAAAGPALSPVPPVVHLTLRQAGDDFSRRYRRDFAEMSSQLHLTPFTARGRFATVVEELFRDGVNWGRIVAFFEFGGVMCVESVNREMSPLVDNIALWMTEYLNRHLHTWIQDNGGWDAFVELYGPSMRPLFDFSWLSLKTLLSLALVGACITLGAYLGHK
T2 sequence (Q07817 whole entry): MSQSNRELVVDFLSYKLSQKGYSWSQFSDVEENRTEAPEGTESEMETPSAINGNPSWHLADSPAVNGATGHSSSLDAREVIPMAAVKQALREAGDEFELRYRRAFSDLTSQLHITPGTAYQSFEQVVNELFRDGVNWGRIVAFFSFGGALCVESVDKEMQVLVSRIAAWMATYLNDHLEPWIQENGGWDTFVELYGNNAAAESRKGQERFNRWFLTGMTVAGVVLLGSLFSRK

Row | Compound | inhibition of growth at 100 µM [1] [%] | IC50 [2] [µM] | inhibition [3] [%] | inhibition [4] [%] | IC50 [5] [µM] | Ki [6] [µM] | Ki [7] [µM]
1 | O=c1cc(-c2cc(O)c(O)c(Cc3ccc(Cl)cc3)c2)oc2cc(O)cc(O)c12 | 48.6 | > 100 | – | – | – | – | –
2 | COc1cc(O)c2c(=O)cc(-c3cc(O)c(O)cc3Cc3ccc(C)cc3)oc2c1 | 96.4 | 10.9 | – | – | – | – | –
3 | O=c1cc(-c2ccc(O)c(O)c2)oc2cc(O)cc(O)c12 [LUTEOLIN] | 44 | > 100 | 46 | 49 | – | – | –
4 | COc1cc(O)c2c(=O)cc(-c3cc(O)c(O)c(Cc4ccccc4C)c3)oc2c1 | 68.9 | 14.8 | – | – | – | – | –
5 | COc1cc(O)c2c(=O)cc(-c3cc(O)c(O)cc3Cc3cccc(C)c3)oc2c1 | 86.1 | 9.97 | – | – | 74.7 | – | –
6 | O=c1cc(-c2cc(O)c(O)cc2Cc2ccccc2Cl)oc2cc(O)cc(O)c12 | 73.4 | 41.8 | – | – | – | – | –
7 | COc1cc(O)c2c(=O)cc(-c3cc(O)c(O)cc3Cc3ccccc3C)oc2c1 | 90.2 | 14.9 | – | – | – | – | –
8 | O=c1cc(-c2cc(O)c(O)cc2Cc2cccc(Cl)c2)oc2cc(O)cc(O)c12 | 65.2 | 64.4 | – | – | – | – | –
9 | COc1cc(O)c2c(=O)cc(-c3cc(O)c(O)c(Cc4ccccc4)c3)oc2c1 | 37.5 | > 100 | – | – | – | – | –
10 | Cc1ccc(Cc2cc(O)c(O)cc2-c2cc(=O)c3c(O)cc(O)cc3o2)cc1 | 19.9 | > 100 | – | – | – | – | –
11 | O=c1cc(-c2cc(O)c(O)c(Cc3ccccc3Cl)c2)oc2cc(O)cc(O)c12 | 30.6 | > 100 | – | – | – | – | –
12 | Cc1cc2c(C(C)C)c(O)c(O)c(C=O)c2c(O)c1-c1c(C)cc2c(C(C)C)c(O)c(O)c(C=O)c2c1O [GOSSYPOL] | 92 | 6.6 | 100 | 100 | 11 | 0.31 | –
13 | COc1cc(O)c2c(=O)cc(-c3cc(O)c(O)c(Cc4cccc(Cl)c4)c3)oc2c1 | 85.2 | 2.92 | – | – | – | – | –
14 | COc1cc(O)c2c(=O)cc(-c3cc(O)c(O)cc3Cc3ccccc3Cl)oc2c1 | 85.8 | 20.5 | – | – | – | – | –
15 | O=c1cc(-c2cc(O)c(O)c(Cc3cccc(Cl)c3)c2)oc2cc(O)cc(O)c12 | 76.4 | 28.8 | – | – | – | – | –
16 | COc1cc(O)c2c(=O)cc(-c3cc(O)c(O)c(Cc4ccccc4Cl)c3)oc2c1 | 80.8 | 13.9 | – | – | – | – | –
17 | Cc1ccc(Cc2cc(-c3cc(=O)c4c(O)cc(O)cc4o3)cc(O)c2O)cc1 | 49.1 | 100 | – | – | – | – | –
18 | COc1cc(O)c2c(=O)cc(-c3cc(O)c(O)cc3Cc3cccc(Cl)c3)oc2c1 | 85.5 | 10.3 | – | – | – | – | –
19 | Cc1ccccc1Cc1cc(-c2cc(=O)c3c(O)cc(O)cc3o2)cc(O)c1O | 31.5 | > 100 | – | – | – | – | –
20 | O=c1cc(-c2cc(O)c(O)cc2Cc2ccccc2)oc2cc(O)cc(O)c12 | 80 | 35.9 | 96 | 70 | 90.7 | 8.4 | 4.6
21 | COc1cc(O)c2c(=O)cc(-c3cc(O)c(O)cc3Cc3ccccc3)oc2c1 | 82 | 14.9 | 100 | 100 | – | 2.5 | 1.3
22 | COc1cc(O)c2c(=O)cc(-c3cc(O)c(O)cc3Cc3ccc(Cl)cc3)oc2c1 | 92.1 | 11.7 | – | – | – | – | –
23 | O=c1cc(-c2cc(O)c(O)cc2Cc2ccc(Cl)cc2)oc2cc(O)cc(O)c12 | 100 | 7.05 | – | – | – | – | –
24 | COc1cc(O)c2c(=O)cc(-c3cc(O)c(O)c(Cc4cccc(C)c4)c3)oc2c1 | 55 | 63 | – | – | – | – | –
25 | O=c1cc(-c2cc(O)c(O)c(Cc3ccccc3)c2)oc2cc(O)cc(O)c12 | 78 | 44 | – | – | – | – | –
26 | Cc1cccc(Cc2cc(-c3cc(=O)c4c(O)cc(O)cc4o3)cc(O)c2O)c1 | 71.9 | 20.9 | – | – | – | – | –
